Laboratory results as given in ChEMBL document CHEMBL1201862, “PubChem BioAssay data set” (2004).
Counter-ions that a name gives are not always drawn.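 Protocol summary: plate cells (96-well), add compound at 5 concentrations, incubate 48 h, interpolate endpoints linearly. GI50 = concentration required for 50% inhibition of growth.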 The source made the active and inactive calls. Rule as the data show it: active = GI50 up to about 1.1 µM and inactive = higher.

Assays:
Experiment in all cases: NCI tumour cell line growth inhibition, 48 h
A498 = system: A498
A549 = system: A549
DU-145 = system: DU-145
EKVX = system: EKVX
HCT-15 = system: HCT-15
M14 = system: M14
Malme-3M = system: Malme-3M
NCI-H226 = system: NCI-H226
NCI-H23 = system: NCI-H23
NCI/ADR-RES = system: NCI/ADR-RES
OVCAR-3 = system: OVCAR-3
OVCAR-5 = system: OVCAR-5
SF-268 = system: SF-268
SF-539 = system: SF-539
SNB-19 = system: SNB-19
SW-620 = system: SW-620
TK-10 = system: TK-10
U-251 = system: U-251
UACC-257 = system: UACC-257
UO-31 = system: UO-31

Compound | GI50 (A498) | GI50 (A549) | GI50 (DU-145) | GI50 (EKVX) | GI50 (HCT-15) [µM] | GI50 (M14) | GI50 (Malme-3M) | GI50 (NCI-H226) | GI50 (NCI-H23) | GI50 (NCI/ADR-RES) | GI50 (OVCAR-3) | GI50 (OVCAR-5) | GI50 (SF-268) | GI50 (SF-539) | GI50 (SNB-19) | GI50 (SW-620) | GI50 (TK-10) | GI50 (U-251) | GI50 (UACC-257) | GI50 (UO-31)
CC(C)CC1[C@@H](OCc2ccccc2)COS(=O)(=O)N1Cc1ccccc1 (stereo not given in full) | > 100 µM (inactive) | 67.6 µM (inactive) | > 100 µM (inactive) | > 100 µM (inactive) | 74.5 | > 100 µM (inactive) | 62.5 µM (inactive) | 86.7 µM (inactive) | 20.7 µM (inactive) | 52.6 µM (inactive) | > 100 µM (inactive) | > 100 µM (inactive) | 6.64 µM (inactive) | > 100 µM (inactive) | 48.1 µM (inactive) | > 100 µM (inactive) | > 100 µM (inactive) | > 100 µM (inactive) | > 100 µM (inactive) | 27.2 µM (inactive)
O=S(=O)(O)c1ccc2cc(/N=N\c3cc(S(=O)(=O)O)c4cccnc4c3O)ccc2c1 | > 100 µM (inactive) | > 100 µM (inactive) | > 100 µM (inactive) | > 100 µM (inactive) | > 100 | > 100 µM (inactive) | > 100 µM (inactive) | > 100 µM (inactive) | > 100 µM (inactive) | > 100 µM (inactive) | > 100 µM (inactive) | > 100 µM (inactive) | > 100 µM (inactive) | > 100 µM (inactive) | > 100 µM (inactive) | > 100 µM (inactive) | > 100 µM (inactive) | > 100 µM (inactive) | > 100 µM (inactive) | > 100 µM (inactive)
Cc1cc(C)c(/C=C2\C(=O)Nc3ccccc32)[nH]1 [SEMAXANIB] | > 100 µM (inactive) | > 65.3 µM (inactive) | > 83 µM (inactive) | 2.81 µM (inactive) | 34.8 | 69 µM (inactive) | > 58.5 µM (inactive) | 1.22 µM (inactive) | 7.96 µM (inactive) | > 100 µM (inactive) | > 100 µM (inactive) | > 69 µM (inactive) | > 100 µM (inactive) | > 100 µM (inactive) | > 100 µM (inactive) | > 87.7 µM (inactive) | > 100 µM (inactive) | > 100 µM (inactive) | > 100 µM (inactive) | 34.5 µM (inactive)
COc1cc(C(=O)C2CC3(CCC2(O)c2cc(OC)c(OC)c(OC)c2)CC(=O)Nc2ccccc2C3=O)cc(OC)c1OC (stereo not given) | > 100 µM (inactive) | > 100 µM (inactive) | > 100 µM (inactive) | > 100 µM (inactive) | 50.6 | 91.2 µM (inactive) | > 100 µM (inactive) | > 100 µM (inactive) | 88.9 µM (inactive) | > 100 µM (inactive) | > 100 µM (inactive) | > 100 µM (inactive) | > 100 µM (inactive) | > 100 µM (inactive) | > 100 µM (inactive) | > 100 µM (inactive) | > 100 µM (inactive) | > 100 µM (inactive) | > 100 µM (inactive) | 33.7 µM (inactive)
CCCCOC(=O)CC(CC(=O)OCCCC)(OC(C)=O)C(=O)OCCCC [ACETYLTRIBUTYL CITRATE] | > 200 µM (inactive) | 96.8 µM (inactive) | > 106 µM (inactive) | > 101 µM (inactive) | > 177 | > 200 µM (inactive) | 197 µM (inactive) | 24.6 µM (inactive) | 60.8 µM (inactive) | 91.6 µM (inactive) | > 200 µM (inactive) | > 200 µM (inactive) | > 200 µM (inactive) | > 100 µM (inactive) | > 200 µM (inactive) | > 130 µM (inactive) | > 200 µM (inactive) | > 200 µM (inactive) | 47.9 µM (inactive) | 39.6 µM (inactive)
Cc1c(S(=O)(=O)c2ccccc2)c(N)n(CCN(C)C)c1C | > 100 µM (inactive) | > 100 µM (inactive) | > 100 µM (inactive) | > 100 µM (inactive) | > 100 | > 100 µM (inactive) | > 100 µM (inactive) | > 100 µM (inactive) | > 100 µM (inactive) | > 100 µM (inactive) | > 100 µM (inactive) | > 100 µM (inactive) | > 100 µM (inactive) | 28.9 µM (inactive) | > 100 µM (inactive) | > 100 µM (inactive) | > 100 µM (inactive) | > 100 µM (inactive) | > 100 µM (inactive) | > 100 µM (inactive)
OC[P+](CO)(CO)C12CC3CC(CC(C3)C1)C2 | > 100 µM (inactive) | > 100 µM (inactive) | > 100 µM (inactive) | > 100 µM (inactive) | > 89.5 | > 100 µM (inactive) | > 100 µM (inactive) | > 100 µM (inactive) | > 88.3 µM (inactive) | > 100 µM (inactive) | > 87.9 µM (inactive) | > 100 µM (inactive) | > 100 µM (inactive) | > 100 µM (inactive) | 87.1 µM (inactive) | > 100 µM (inactive) | > 100 µM (inactive) | > 100 µM (inactive) | > 100 µM (inactive) | > 78.3 µM (inactive)
CN1c2ccccc2SC2C(c3ccccc3)=NOC21 (stereo not given) | 28.4 µM (inactive) | 36.5 µM (inactive) | 65.6 µM (inactive) | 24.9 µM (inactive) | 15.5 | 38.2 µM (inactive) | 8.39 µM (inactive) | 47.6 µM (inactive) | 23.1 µM (inactive) | 29.8 µM (inactive) | 56.1 µM (inactive) | 94.8 µM (inactive) | 51.8 µM (inactive) | 27.7 µM (inactive) | 73.3 µM (inactive) | 25.1 µM (inactive) | 16.2 µM (inactive) | 38.5 µM (inactive) | > 10 µM (inactive) | 35.1 µM (inactive)
C=C1C(=O)OC2C1C(OC(=O)/C(C)=C/C)CC(O)(CCl)C1C(O)C=C(C)C21O (stereo not given) | 23.6 µM (inactive) | 28.7 µM (inactive) | 16.5 µM (inactive) | 12 µM (inactive) | 3.72 | 11.4 µM (inactive) | 2.22 µM (inactive) | 19.1 µM (inactive) | 13.8 µM (inactive) | 17.9 µM (inactive) | 11.9 µM (inactive) | 16.7 µM (inactive) | 22.9 µM (inactive) | 20.6 µM (inactive) | > 43.8 µM (inactive) | 3.85 µM (inactive) | 14.1 µM (inactive) | 27.5 µM (inactive) | 12.1 µM (inactive) | 15 µM (inactive)
